The supplement of paper PMC10307832

What was measured:
Assay in all cases: relative viability (nuclei count vs DMSO), 5 days (fraction); higher = more cells survive
[1] = compound: OCc1c[nH]c2ccccc12 [Indole-3-carbinol] + Cc1nc(NC(=O)N2CCC[C@H]2C(N)=O)sc1-c1ccnc(C(C)(C)C(F)(F)F)c1 [Alpelisib] (partner 2 µM)
How it was run: (§1)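 Dosing by pin tool came one day after lung cancer cell lines were seeded in 1536-well plates, using either one drug or a fixed anchor-drug dose plus five library-drug doses (not always all listed) in √10 steps. After 5 days, nuclei were counted on 4× images. Relative viability is treated-well nuclei count divided by vehicle-well nuclei count, and values are medians of duplicate plates.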

[2] = compound: OCc1c[nH]c2ccccc12 [Indole-3-carbinol] + Nc1ncn([C@H]2C[C@H](O)[C@@H](CO)O2)c(=O)n1 [Decitabine] (partner 2 µM)
How it was run: as §1

[3] = compound: OCc1c[nH]c2ccccc12 [Indole-3-carbinol] + COc1cc2c(Oc3ccc(NC(=O)C4(C(=O)Nc5ccc(F)cc5)CC4)cc3F)ccnc2cc1OCCCN1CCOCC1 [Foretinib] (partner 0.25 µM)
How it was run: as §1

[4] = compound: OCc1c[nH]c2ccccc12 [Indole-3-carbinol] + COc1cccc2cc(-c3nc([C@H]4CC[C@H](C(=O)O)CC4)n4ncnc(N)c34)[nH]c12 [OSI-027] (partner 0.5 µM)
How it was run: as §1

[5] = compound: OCc1c[nH]c2ccccc12 [Indole-3-carbinol] + CCNC(=O)c1noc(-c2cc(C(C)C)c(O)cc2O)c1-c1ccc(CN2CCOCC2)cc1 [Luminespib] (partner 0.01 µM)
How it was run: as §1

Row | Cell Line | relative viability ([1]; first compound 0.253 µM) | relative viability ([1]; first compound 0.8 µM) | relative viability ([1]; first compound 2.53 µM) | relative viability ([1]; first compound 8 µM) | relative viability ([2]; first compound 0.253 µM) | relative viability ([2]; first compound 0.8 µM) | relative viability ([2]; first compound 2.53 µM) | relative viability ([2]; first compound 8 µM) | relative viability ([3]; first compound 0.253 µM) | relative viability ([3]; first compound 0.8 µM) | relative viability ([3]; first compound 2.53 µM) | relative viability ([3]; first compound 8 µM) | relative viability ([4]; first compound 0.253 µM) | relative viability ([4]; first compound 0.8 µM) | relative viability ([4]; first compound 2.53 µM) | relative viability ([4]; first compound 8 µM) | relative viability ([5]; first compound 0.253 µM) | relative viability ([5]; first compound 0.8 µM) | relative viability ([5]; first compound 2.53 µM) | relative viability ([5]; first compound 8 µM)
1 | NCI-H1734 | 0.692 | 0.725 | 0.719 | 0.674 | 0.51 | 0.456 | 0.477 | 0.46 | 0.91 | 0.802 | 0.887 | 0.674 | 0.506 | 0.631 | 0.634 | 0.582 | 0.242 | 0.246 | 0.194 | 0.221
2 | NCI-H520 | 0.911 | 1.07 | 1.04 | 0.849 | 0.526 | 0.541 | 0.505 | 0.541 | 0.863 | 0.774 | 0.705 | 0.62 | 0.25 | 0.189 | 0.258 | 0.274 | 0.188 | 0.178 | 0.219 | 0.211
3 | UMC-11 | 0.933 | 1.02 | 0.981 | 0.955 | 0.608 | 0.638 | 0.709 | 0.593 | 0.914 | 1.1 | 1.05 | 1.09 | 0.443 | 0.495 | 0.464 | 0.472 | 1.01 | 0.953 | 1.04 | 1.01
4 | NCI-H596 | 0.387 | 0.48 | 0.417 | 0.47 | 1.04 | 0.971 | 1.06 | 0.959 | 0.921 | 0.885 | 1.05 | 0.791 | 0.759 | 0.761 | 0.726 | 0.866 | 0.734 | 1.01 | 0.913 | 1
5 | NCI-H1755 | 0.97 | 0.935 | 0.907 | 0.886 | 0.737 | 0.686 | 0.725 | 0.638 | 0.982 | 0.953 | 0.895 | 0.895 | 0.761 | 0.664 | 0.822 | 0.699 | 0.554 | 0.407 | 0.49 | 0.348
6 | SK-LU-1 | 1.01 | 1.03 | 1.07 | 0.99 | 0.689 | 0.626 | 0.757 | 0.719 | 0.851 | 0.836 | 0.911 | 0.763 | 0.359 | 0.322 | 0.382 | 0.314 | 0.214 | 0.228 | 0.211 | 0.203
7 | NCI-H647 | 1.22 | 1.15 | 1.24 | 1.09 | 0.417 | 0.438 | 0.455 | 0.354 | 1.22 |  | 1.22 | 1.01 | 0.595 |  | 0.826 | 0.497 | 0.261 | 0.199 | 0.156 | 0.236
8 | SW 1573 | 0.724 | 0.833 | 0.822 | 0.761 | 0.48 | 0.535 | 0.636 | 0.417 | 1.12 | 1.04 | 1.02 | 0.812 | 0.639 | 0.593 | 0.804 | 0.521 | 0.183 | 0.248 | 0.303 | 0.138
